Laboratory results published in article PMC4848905, “Fragment Screening of Human Aquaporin 1” (International Journal of Molecular Sciences, 2016).

Tests used:
hAQP1 = biological target: T1, hAQP1 (Homo sapiens, UniProt P29972); set-up: method as in PMID 26028295; details: 30 µM; cited from earlier work
T1 construct: made in house; host or cells: Spodoptera frugiperda (Sf9) insect cells, baculovirus vector pFB-LIC-Bse
T1 sequence (P29972 1-269): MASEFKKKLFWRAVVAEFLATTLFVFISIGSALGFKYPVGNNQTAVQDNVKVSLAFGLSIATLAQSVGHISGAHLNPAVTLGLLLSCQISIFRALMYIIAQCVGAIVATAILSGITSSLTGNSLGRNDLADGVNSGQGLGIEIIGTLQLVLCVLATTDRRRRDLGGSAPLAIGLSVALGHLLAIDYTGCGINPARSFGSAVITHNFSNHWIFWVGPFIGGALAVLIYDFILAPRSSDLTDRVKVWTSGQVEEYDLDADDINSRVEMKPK

human red blood cells = test system: human red blood cells; set-up: method as in PMID 26028295; details: cited from earlier work
[1] = biological target: T2, E. coli aquaporin Z (E. coli), P60844; assay: native gel or EMSA; blue-native PAGE (4%-16% Bis-Tris gel, 4 °C) of purified protein in sample buffer with 100 mM OG, 750 mM aminocaproic acid, 50 mM Bis-Tris HCl pH 7.0, 0.5 mM EDTA; details: remark: other sources report otherwise
T2 chain: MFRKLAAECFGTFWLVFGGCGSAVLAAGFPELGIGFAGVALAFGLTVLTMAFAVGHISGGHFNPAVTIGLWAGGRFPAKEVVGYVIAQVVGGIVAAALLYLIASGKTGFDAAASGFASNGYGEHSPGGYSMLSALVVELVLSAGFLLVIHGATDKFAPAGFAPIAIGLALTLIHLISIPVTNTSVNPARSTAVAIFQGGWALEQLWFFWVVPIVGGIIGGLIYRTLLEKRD

[2] = biological target: the molecule itself; assay: SEC; gel filtration on HiLoad 16/600 Superdex 200 prep grade at 4 °C; 20 mM Tris-HCl pH 8, 300 mM NaCl, 1% OG; major peak at 70 mL
[3] = biological target: the molecule itself; assay: native gel or EMSA; blue-native PAGE (4%-16% Bis-Tris gel, 4 °C) of purified protein in sample buffer with 100 mM OG, 750 mM aminocaproic acid, 50 mM Bis-Tris HCl pH 7.0, 0.5 mM EDTA

## O=[N+]([O-])c1ccc2c(c1)/C(=N/N=C1c3ccccc3Cc3ccccc31)c1cc([N+](=O)[O-])cc([N+](=O)[O-])c1-2 [NSC658139]
hAQP1
  stabilization of hAQP1: ≤ 13 °C
Human red blood cells
  overall amplitude of the traces: strong reduction in overall amplitude
  rate constant in the RBC assays: did not reduce the rate constant

B1: E. coli aquaporin Z, P60844 1-231 (natural protein)
chain: MFRKLAAECFGTFWLVFGGCGSAVLAAGFPELGIGFAGVALAFGLTVLTMAFAVGHISGGHFNPAVTIGLWAGGRFPAKEVVGYVIAQVVGGIVAAALLYLIASGKTGFDAAASGFASNGYGEHSPGGYSMLSALVVELVLSAGFLLVIHGATDKFAPAGFAPIAIGLALTLIHLISIPVTNTSVNPARSTAVAIFQGGWALEQLWFFWVVPIVGGIIGGLIYRTLLEKRD
[1]
  stoichiometry N: 8

B2: human aquaporin 1 (6His-TEV-hAQP1) (natural protein, UniProt P29972 1-269, looked up)
chain: MASEFKKKLFWRAVVAEFLATTLFVFISIGSALGFKYPVGNNQTAVQDNVKVSLAFGLSIATLAQSVGHISGAHLNPAVTLGLLLSCQISIFRALMYIIAQCVGAIVATAILSGITSSLTGNSLGRNDLADGVNSGQGLGIEIIGTLQLVLCVLATTDRRRRDLGGSAPLAIGLSVALGHLLAIDYTGCGINPARSFGSAVITHNFSNHWIFWVGPFIGGALAVLIYDFILAPRSSDLTDRVKVWTSGQVEEYDLDADDINSRVEMKPK
notes: human aquaporin 1, full-length cDNA cloned in pFB-LIC-Bse downstream of an N-terminal 6His and TEV protease cleavage site; No TEV cleavage is described; An octamer band is also assigned in BN-PAGE; also called recombinant hAQP1; source: Sf9 (Spodoptera frugiperda) insect cells, purified (Ni-NTA, gel filtration) in n-octyl-β-D-glucopyranoside
[2]
  stoichiometry N: 4
[3]
  stoichiometry N: 8
